Assay [1] deals with HCT116 homozygous MTAP knockout cells. The assay is described as follows: Proliferation assay (CellTiter-Glo, 10 days) in HCT116 homozygous MTAP knockout cells. Conditions: CellTiter-Glo after 10 days of treatment, read-out: Proliferation IC50 (nM) HCT116 MTAP_KO. Type of assay: cell-based. The procedure:
HCT116 cells were genetically engineered to knock out the function of both MTAP alleles using a CRISPR/Cas9 system and an sgRNA targeting the MTAP gene. Following Cas9/MTAP sgRNA transduction, clones were screened to confirm that each allele of the MTAP gene had been inactivated (i.e., homozygous MTAP knock out) creating an MTAP-deficient cell.
Control samples were analyzed in parallel.
Briefly, on Day 0, 250 HCT116 parental or HCT116 homozygous MTAP knockout cell were seeded in 96 well plates in McCoy's 5A supplemented with […] fetal bovine serum and pen/strep and the cells were incubated overnight at 37° C. plus 5% CO2.
The following day, cells were treated with DMSO vehicle control or a dose response of PRMT5 inhibitors and incubated at 37 C plus 5% CO2 for five days. On Day 6, the cells were trypsinized and split 1:10 into new 96-well plates with fresh medium containing the same concentration of PRMT5 inhibitor and incubated for an additional 5 days at 37° C. plus 5% CO^2.
On Day 11, the viability of the cells was measured using a CTG assay kit (CellTiter-Glo; Promega cat.no G7573) in accordance with the manufacturer's instructions. The IC50 values for each compound after 10 days of treatment were calculated using GraphPad PRISM software.

In assay [2] the target is T1, PRMT5/MEP50 complex (Homo sapiens, UniProt O14744).
T1 construct: purchased Reaction Biology Corporation
T1 sequence (O14744 2-637 limits assumed): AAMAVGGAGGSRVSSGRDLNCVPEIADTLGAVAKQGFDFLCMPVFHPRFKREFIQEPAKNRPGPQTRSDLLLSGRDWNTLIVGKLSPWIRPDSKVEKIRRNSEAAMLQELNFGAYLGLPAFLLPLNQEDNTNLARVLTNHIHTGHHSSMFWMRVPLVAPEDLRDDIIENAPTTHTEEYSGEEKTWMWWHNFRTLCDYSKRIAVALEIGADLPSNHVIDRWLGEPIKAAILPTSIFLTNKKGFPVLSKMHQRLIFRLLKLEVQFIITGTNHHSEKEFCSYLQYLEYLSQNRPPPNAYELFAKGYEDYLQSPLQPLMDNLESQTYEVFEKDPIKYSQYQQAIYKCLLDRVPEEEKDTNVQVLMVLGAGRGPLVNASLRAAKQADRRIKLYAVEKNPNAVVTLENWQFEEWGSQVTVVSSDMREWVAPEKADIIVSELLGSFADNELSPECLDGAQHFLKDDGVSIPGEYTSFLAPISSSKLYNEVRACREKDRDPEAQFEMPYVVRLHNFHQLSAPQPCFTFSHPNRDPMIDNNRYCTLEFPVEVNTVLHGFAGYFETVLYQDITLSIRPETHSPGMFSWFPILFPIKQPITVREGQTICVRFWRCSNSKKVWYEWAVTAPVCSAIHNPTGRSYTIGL
T1 sequence (Q9BQA1 2-342 partner limits assumed): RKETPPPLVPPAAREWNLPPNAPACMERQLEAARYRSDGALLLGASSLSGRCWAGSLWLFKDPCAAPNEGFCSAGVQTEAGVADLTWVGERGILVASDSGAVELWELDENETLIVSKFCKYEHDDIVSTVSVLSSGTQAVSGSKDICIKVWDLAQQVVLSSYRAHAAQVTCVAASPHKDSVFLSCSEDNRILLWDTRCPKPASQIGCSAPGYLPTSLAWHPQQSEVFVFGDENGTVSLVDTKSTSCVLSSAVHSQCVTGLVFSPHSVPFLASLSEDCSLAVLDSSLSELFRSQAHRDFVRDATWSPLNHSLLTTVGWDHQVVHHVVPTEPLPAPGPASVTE
The experiment in a line: PRMT5:MEP50 HotSpot Assay (full-length histone H2A substrate, plus and minus MTA). Conditions: IC50 + 2 μM MTA, in the presence of 2 μM MTA. Type of assay: biochemical. An outline of the steps:
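Radiometric HotSpot format using recombinant full-length histone H2A as substrate, run with and without MTA. Reactions were stopped and spotted onto filter paper. Tritiated H2A was quantified by scintillation counting.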

The structures appear in SMILES notation. Structures can show the parent of a compound that is named as a salt. Where two headings read alike, the source gives them in different places. Where only a bound is given, the exact number is not on record here.

On to `Cn1ncc(-c2ccc3c(=O)[nH]nc(CN)c3c2)c1-c1c(F)cc2ncc(Cl)cc2c1C#N` (single isomer, unassigned) [Example 16-31, (M)-6-[4-[4-(aminomethyl)-1-oxo-2H-phthalazin-6-yl]-2-methyl-pyrazol-3-yl]-3-chloro-7-fluoro-quinoline-5-carbonitrile], for which the IC50 in assay [1] came out at 16 nM; in assay [2], 19.3 nM.
In the same order, the values of `Cn1ncc(-c2ccc3c(=O)[nH]nc(CN)c3c2)c1-c1c(C#N)cc2ncccc2c1F` (single isomer, unassigned) [Example 16-92, (M)-6-[4-[4-(aminomethyl)-1-oxo-2H-phthalazin-6-yl]-2-methyl-pyrazol-3-yl]-5-fluoro-quinoline-7-carbonitrile] are 403 nM and 2040 nM.
With `Cc1cnc2sc(-c3c(-c4ccc5c(=O)[nH]nc(CN)c5c4)cnn3C)c(C#N)c2c1` [Example 12-19, 2-[4-[4-(aminomethyl)-1-oxo-2H-phthalazin-6-yl]-2-methyl-pyrazol-3-yl]-5-methyl-thieno[2,3-b]pyridine-3-carbonitrile hydrochloride], the IC50 stood at 136 nM in assay [1] (Homo sapiens, HCT-116, 240 h) and 212 nM in assay [2].
As to `Cn1ncc(-c2cc(Cl)c3c(=O)[nH]nc(CN)c3c2)c1-c1c(F)c(Cl)c2ccccc2c1C#N` (single isomer, unassigned) [Example 16-58, (M)-2-[4-[4-(aminomethyl)-8-chloro-1-oxo-2H-phthalazin-6-yl]-2-methyl-pyrazol-3-yl]-4-chloro-3-fluoro-naphthalene-1-carbonitrile], the IC50 came to 15 nM in assay [1] and 4.61 nM in assay [2].
In the same order, the values of `Cn1ncc(-c2ccc3c(=O)[nH]nc(CN)c3c2)c1-c1c(F)c(Cl)c2c(c1C#N)OCCC2` (single isomer, unassigned) [Example 16-40, (M)-7-(4-(4-(aminomethyl)-1-oxo-1,2-dihydrophthalazin-6-yl)-1-methyl-1H-pyrazol-5-yl)-5-chloro-6-fluorochroman-8-carbonitrile] are 12 nM and 60.1 nM.
Regarding `Cn1ncc(-c2ccc3c(=O)[nH]nc(CN)c3c2)c1-c1c(F)cc2c(c1C#N)OCCO2` (single isomer, unassigned) [Example 16-89, (P)-6-[4-[4-(aminomethyl)-1-oxo-2H-phthalazin-6-yl]-2-methyl-pyrazol-3-yl]-7-fluoro-2,3-dihydro-1,4-benzodioxine-5-carbonitrile], the IC50 in assay [1] was 514 nM; in assay [2], 1360 nM.
Regarding `Cn1ncc(-c2ccc3c(=O)[nH]nc(CN)c3c2)c1-c1c(C#N)cc2ccccc2c1F` (single isomer, unassigned) [Example 16-54, (M)-3-[4-[4-(aminomethyl)-1-oxo-2H-phthalazin-6-yl]-2-methyl-pyrazol-3-yl]-4-fluoro-naphthalene-2-carbonitrile], the values for the IC50 in assay [1] and in assay [2] were 82 nM and 9.19 nM, respectively.
In the same order, the values of `Cn1ncc(-c2ccc3c(=O)[nH]nc(CN)c3c2)c1-c1c(C#N)c(OC2CC2)c2ccccc2c1Cl` (single isomer, unassigned) [Example 16-23, (P)-3-[4-[4-(aminomethyl)-1-oxo-2H-phthalazin-6-yl]-2-methyl-pyrazol-3-yl]-4-chloro-1-(cyclopropoxy)naphthalene-2-carbonitrile] are 538 nM and 485 nM.
On the same counts, the results for `CCOc1cc(-c2cnn(C)c2-c2c(F)c(C)cc(OC3CC3)c2C#N)cc2c(CN)n[nH]c(=O)c12` (single isomer, unassigned) [Example 16-75, (P)-2-[4-[4-(aminomethyl)-8-ethoxy-1-oxo-2H-phthalazin-6-yl]-2-methyl-pyrazol-3-yl]-6-(cyclopropoxy)-3-fluoro-4-methyl-benzonitrile] are 420 nM and 5030 nM.
As to `COCc1cccc2c(C#N)c(-c3c(-c4ccc5c(=O)[nH]nc(CN)c5c4)cnn3C)sc12` [Example 12-20, 2-[4-[4-(aminomethyl)-1-oxo-2H-phthalazin-6-yl]-2-methyl-pyrazol-3-yl]-7-(methoxymethyl) benzothiophene-3-carbonitrile hydrochloride], the IC50 in assay [1] (Homo sapiens, HCT-116, 240 h) amounted to 269 nM; in assay [2], 183 nM.
As to `CCOc1cc(-c2cnn(C)c2-c2c(F)ccc(OC3CC3)c2C#N)cc2c(CN)n[nH]c(=O)c12` (atropisomer, axis not shown; (P)) [Example 16-73, (P)-2-[4-[4-(aminomethyl)-8-ethoxy-1-oxo-2H-phthalazin-6-yl]-2-methyl-pyrazol-3-yl]-6-(cyclopropoxy)-3-fluoro-benzonitrile], the IC50 was found to be 1070 nM in assay [1] and 909 nM in assay [2].
With `Cn1ncc(-c2ccc3c(=O)[nH]nc(CN)c3c2)c1-c1sc2c(C3CCCO3)cccc2c1C#N` (stereo not drawn) [Example 12-21, 2-[4-[4-(aminomethyl)-1-oxo-2H-phthalazin-6-yl]-2-methyl-pyrazol-3-yl]-7-THF-2-yl-benzothiophene-3-carbonitrile hydrochloride], the IC50 came out at 126 nM in assay [1] (Homo sapiens, HCT-116, 240 h) and 128 nM in assay [2].
Consider `CCOc1cc(-c2cnn(C)c2-c2sc3ccccc3c2C#N)cc2c(CN)n[nH]c(=O)c12` [Example 10-24, 2-(4-(4-(aminomethyl)-8-ethoxy-1-oxo-1,2-dihydrophthalazin-6-yl)-1-methyl-1H-pyrazol-5-yl)benzo[b]thiophene-3-carbonitrile], for which the IC50 in assay [1] (Homo sapiens, HCT-116, 240 h) was determined as 166 nM; in assay [2] it was 76 nM.
In the same order, the values of `Cn1ncc(-c2ccc3c(=O)[nH]nc(C4(N)CC4)c3c2)c1-c1sc2ccccc2c1C#N` [Example 9-8, 2-(4-(4-(1-aminocyclopropyl)-1-oxo-1,2-dihydrophthalazin-6-yl)-1-methyl-1H-pyrazol-5-yl)benzo[b]thiophene-3-carbonitrile] are 10000 nM and more than 10000 nM.
On the same counts, the results for `Cc1c(F)c(-c2c(-c3cc(C)c4c(=O)[nH]nc(CN)c4c3)cnn2C)c(C#N)c2ncc(Cl)cc12` (single isomer, unassigned) [Example 16-95, (P)-7-(4-(4-(aminomethyl)-8-methyl-1-oxo-1,2-dihydrophthalazin-6-yl)-1-methyl-1H-pyrazol-5-yl)-3-chloro-6-fluoro-5-methylquinoline-8-carbonitrile] are 1230 nM and 800 nM.
For `COc1cc(F)c(-c2c(-c3ccc4c(=O)[nH]nc(CN)c4c3)cnn2C)c(C#N)c1OC1CC1` (atropisomer, axis not shown; (P)) [Example 16-72, (P)-2-[4-[4-(aminomethyl)-1-oxo-2H-phthalazin-6-yl]-2-methyl-pyrazol-3-yl]-6-(cyclopropoxy)-3-fluoro-5-methoxy-benzonitrile], the IC50 is 461 nM in assay [1] and 113 nM in assay [2].
On to `Cn1ncc(-c2ccc3c(=O)[nH]nc(CN)c3c2)c1-c1c(F)ccc(CC2CC2)c1C#N` (single isomer, unassigned) [Example 16-29, (P)-2-(4-(4-(aminomethyl)-1-oxo-1,2-dihydrophthalazin-6-yl)-1-methyl-1H-pyrazol-5-yl)-6-(cyclopropylmethyl)-3-fluorobenzonitrile], for which the IC50 in assay [1] stood at 292 nM; in assay [2] it was 111 nM.
Consider `Cn1ncc(-c2cc(O)c3c(=O)[nH]nc(CN)c3c2)c1-c1sc2ccccc2c1C#N` [Example 15-6, 2-(4-(4-(aminomethyl)-8-hydroxy-1-oxo-1,2-dihydrophthalazin-6-yl)-1-methyl-1H-pyrazol-5-yl)benzo[b]thiophene-3-carbonitrile], for which the IC50 in assay [1] (Homo sapiens, HCT-116, 240 h) is 138 nM; in assay [2] it was 235 nM.
For `COc1cccc2c(C#N)c(-c3c(-c4ccc5c(=O)[nH]nc(CN)c5c4)cnn3C)sc12` [Example 4-268, 2-[4-[4-(aminomethyl)-1-oxo-2H-phthalazin-6-yl]-2-methyl-pyrazol-3-yl]-7-methoxy-benzothiophene-3-carbonitrile], the IC50 in assay [1] (Homo sapiens, HCT-116, 240 h) amounted to 201 nM; in assay [2], 165 nM.
On the same counts, the results for `Cn1ncc(-c2ccc3c(=O)[nH]nc(CN)c3c2)c1-c1sc2ncc(Cl)cc2c1C#N` [Example 4-263, 2-[4-[4-(aminomethyl)-1-oxo-2H-phthalazin-6-yl]-2-methyl-pyrazol-3-yl]-5-chloro-thieno[2,3-b]pyridine-3-carbonitrile] are 132 nM and 119 nM.
On the same counts, the results for `Cc1cnc2cc(F)c(-c3c(-c4ccc5c(=O)[nH]nc(CN)c5c4)cnn3C)c(C#N)c2c1` (atropisomer, axis not shown; (M)) [Example 16-35, (M)-6-[4-[4-(aminomethyl)-1-oxo-2H-phthalazin-6-yl]-2-methyl-pyrazol-3-yl]-7-fluoro-3-methyl-quinoline-5-carbonitrile] are 5 nM and 84 nM.
